Measurements published in ChEMBL document CHEMBL3638844, “Heterocyclic kinase inhibitors” (2014).

Assays:
[1] = molecular target: Serine/threonine-protein kinase pim-3 (Homo sapiens, UniProt Q86V86); experiment: ATP Depletion Assay: The activity of PIM3 is measured using a luciferase-luciferin based ATP detection reagent to quantify ATP depletion resulting from kinase-catalyzed phosphoryl transfer to a peptide substrate. Compounds to be tested are dissolved in 100% DMSO and directly distributed into white 384-well plates at 0.5 uA per well. To start the reaction, 10 ul of 10 nM Pim3 kinase and 200 uM BAD peptide (RSRHSSYPAGT-OH) in assay buffer (50 mM HEPES pH 7.5, 5 mM MgCl2, 1 mM DTT, 0.05% BSA) is added into each well. After 15 minutes, 10 ul of 80 uM ATP in assay buffer is added. Final assay concentrations are […], 40 uM ATP, 100 uM BAD peptide and 2.5% DMSO. The reaction is performed until approximately 50% of the ATP is depleted, then stopped by the addition of 20 ul KinaseGlo Plus (Promega Corporation) solution. The stopped reaction is incubated for 10 minutes and the remaining ATP detected via luminescence on the Victor2 (Perkin Elmer).
[2] = molecular target: Serine/threonine-protein kinase pim-1 (Homo sapiens, UniProt P11309); experiment: ATP Depletion Assay: The activity of PIM1 is measured using a luciferase-luciferin based ATP detection reagent to quantify ATP depletion resulting from kinase-catalyzed phosphoryl transfer to a peptide substrate. Compounds to be tested are dissolved in 100% DMSO and directly distributed into white 384-well plates at 0.5 uA per well. To start the reaction, 10 ul of 5 nM Pim1 kinase and 80 uM BAD peptide (RSRHSSYPAGT-OH) in assay buffer (50 mM HEPES pH 7.5, 5 mM MgCl2, 1 mM DTT, 0.05% BSA) is added into each well. After 15 minutes, 10 ul of 40 uM ATP in assay buffer is added. Final assay concentrations are 2.5 nM PIM1, 20 uM ATP, 40 uM BAD peptide and 2.5% DMSO. The reaction is performed until approximately 50% of the ATP is depleted, then stopped with the addition of 20 ul KinaseGlo Plus (Promega Corporation) solution. The stopped reaction is incubated for 10 minutes and the remaining ATP detected via luminescence on the Victor2 (Perkin Elmer).
[3] = molecular target: Serine/threonine-protein kinase pim-2 (Homo sapiens, UniProt Q9P1W9); experiment: ATP Depletion Assay: The activity of PIM2 is measured using a luciferase-luciferin based ATP detection reagent to quantify ATP depletion resulting from kinase-catalyzed phosphoryl transfer to a peptide substrate. Compounds to be tested are dissolved in 100% DMSO and directly distributed into white 384-well plates at 0.5 ul per well. To start the reaction, 10 ul of 10 nM Pim2 kinase and 20 uM BAD peptide (RSRHSSYPAGT-OH) in assay buffer (50 mM HEPES pH 7.5, 5 mM MgCl2, 1 mM DTT, 0.05% BSA) is added into each well. After 15 minutes, 10 ul of 8 uM ATP in assay buffer is added. Final assay concentrations are 5 nM PIM2, 4 uM ATP, 10 uM BAD peptide and 2.5% DMSO. The reaction is performed until approximately 50% of the ATP is depleted, then stopped with the addition of 20 ul KinaseGlo Plus (Promega Corporation) solution. The stopped reaction is incubated for 10 minutes and the remaining ATP detected via luminescence on the Victor2 (Perkin Elmer).
Chain of Serine/threonine-protein kinase pim-2 (Q9P1W9 whole entry): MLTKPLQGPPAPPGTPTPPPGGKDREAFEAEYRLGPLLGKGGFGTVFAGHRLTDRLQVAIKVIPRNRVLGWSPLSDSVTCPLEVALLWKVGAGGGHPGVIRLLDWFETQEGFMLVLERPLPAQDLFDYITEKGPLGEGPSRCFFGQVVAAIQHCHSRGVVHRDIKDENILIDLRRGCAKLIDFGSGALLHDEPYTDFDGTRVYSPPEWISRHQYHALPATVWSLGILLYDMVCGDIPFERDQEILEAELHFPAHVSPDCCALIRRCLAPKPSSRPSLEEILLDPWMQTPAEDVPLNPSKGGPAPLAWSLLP

Chain of Serine/threonine-protein kinase pim-1 (P11309 whole entry): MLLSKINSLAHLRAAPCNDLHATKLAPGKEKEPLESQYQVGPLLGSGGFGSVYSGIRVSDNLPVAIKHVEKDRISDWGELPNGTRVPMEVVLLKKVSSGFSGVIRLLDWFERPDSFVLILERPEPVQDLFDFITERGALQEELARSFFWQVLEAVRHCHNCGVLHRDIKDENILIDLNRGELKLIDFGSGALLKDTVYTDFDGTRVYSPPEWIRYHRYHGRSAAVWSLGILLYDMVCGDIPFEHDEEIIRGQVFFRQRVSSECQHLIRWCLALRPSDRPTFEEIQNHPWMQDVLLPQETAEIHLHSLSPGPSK

IC50 [1] [nM] | IC50 [2] [nM] | IC50 [3] [nM] | SMILES
61 | 589 | 512 | N[C@H]1C[C@@H](O)CN(c2ccncc2Nc2cccc3ccc(-c4c(F)cccc4F)nc23)C1
– | 796 | 286 | N[C@H]1C[C@@H](CO)CN(c2ccncc2Nc2cccc3ccc(-c4c(F)cccc4F)nc23)C1
